Results published in ChEMBL document CHEMBL5104124, “Recent advances on synthesis and biological activities of C-17 aza-heterocycle derived steroids” (Bioorg Med Chem, 2022).
pIC50: −log10 of the molar value. Each block holds one compound with its values, some of them ahead of it.

Columns and labels:
[1] = molecular target: 3-oxo-5-alpha-steroid 4-dehydrogenase 2 (Rattus norvegicus, UniProt P31214); test: Inhibition of rat liver microsomal SRD5A2 incubated for 60 mins by thin layer chromatography; type: microsomes, Microsome
HepG2 [2] = test: Antiproliferative activity against human HepG2 cells assessed as cell growth inhibition measured after 24 hrs by MTT assay; type: functional, cell-based; settings: HepG2, 24 h
LNCaP = test: Antiproliferative activity against human LNCaP cells assessed as cell growth inhibition measured after 96 hrs by MTT assay; type: functional, cell-based
PC-3 = test: Antiproliferative activity against human PC-3 cells assessed as cell growth inhibition measured after 96 hrs by MTT assay; type: functional, cell-based; settings: PC-3, 96 h
[3] = molecular target: 3-oxo-5-alpha-steroid 4-dehydrogenase 2 (Homo sapiens, UniProt P31213); test: Inhibition of SRD5A2 in HEK293 incubated for 60 mins by thin layer chromatography; type: cell-based
[4] = molecular target: 3-oxo-5-alpha-steroid 4-dehydrogenase 1 (Homo sapiens, UniProt P18405); test: Inhibition of human prostate SRD5A1 incubated for 60 mins by scintillation counter; type: tissue-based, Prostate gland
[5] = Inhibition of Wistar rat testicular 3beta-HSD incubated for 20 mins by liquid scintillation counting analysis; type: tissue-based, Testis
Staphylococcus aureus [6] = test: Antibacterial activity against methicillin resistant Staphylococcus aureus chicken isolate assessed as inhibition of bacterial growth measured after 24 hrs by CLSI protocol based microdilution assay; type: functional
Brevibacterium = test: Antibacterial activity against Brevibacterium assessed as inhibition of bacterial growth measured after 24 hrs by CLSI protocol based microdilution assay; type: functional
Escherichia coli = test: Antibacterial activity against Escherichia coli DSM 10233 assessed as inhibition of bacterial growth measured after 24 hrs by CLSI protocol based microdilution assay; type: functional
Staphylococcus aureus [7] = test: Antibacterial activity against Staphylococcus aureus ATCC 25923 assessed as inhibition of bacterial growth measured after 24 hrs by CLSI protocol based microdilution assay; type: functional
Staphylococcus aureus [8] = test: Antibacterial activity against methicillin resistant Staphylococcus aureus ATCC 43300 assessed as inhibition of bacterial growth measured after 24 hrs by CLSI protocol based microdilution assay; type: functional
Corynebacterium sp. = test: Antibacterial activity against Corynebacterium assessed as inhibition of bacterial growth measured after 24 hrs by CLSI protocol based microdilution assay; type: functional
Staphylococcus aureus [9] = test: Antibacterial activity against methicillin resistant Staphylococcus aureus human isolate assessed as inhibition of bacterial growth measured after 24 hrs by CLSI protocol based microdilution assay; type: functional
Enterococcus faecalis = test: Antibacterial activity against Enterococcus faecalis ATCC 19433 assessed as inhibition of bacterial growth measured after 24 hrs by CLSI protocol based microdilution assay; type: functional
Staphylococcus aureus [10] = test: Antibacterial activity against methicillin resistant Staphylococcus aureus ATCC 25923 assessed as inhibition of bacterial growth measured after 24 hrs by CLSI protocol based microdilution assay; type: functional
Candida albicans = test: Antifungal activity against Candida albicans ATCC 10231 assessed as fungal growth inhibition measured after 24 hrs by CLSI protocol based microdilution assay; type: functional
Bacillus cereus = test: Antibacterial activity against Bacillus cereus ATCC 11778 assessed as inhibition of bacterial growth measured after 24 hrs by CLSI protocol based microdilution assay; type: functional
MDA-MB-361 = test: Antiproliferative activity against human MDA-MB-361 cells assessed as cell growth inhibition measured after 72 hrs by MTT assay; type: functional, cell-based; settings: MDA-MB-361, 72 h
T47D = test: Antiproliferative activity against human T47D cells assessed as cell growth inhibition measured after 72 hrs by MTT assay; type: functional, cell-based
MCF7 [11] = test: Antiproliferative activity against human MCF7 cells assessed as cell growth inhibition measured after 72 hrs by MTT assay; type: functional, cell-based; settings: MCF7, 72 h
[12] = Antiproliferative activity against human WM35 cells assessed as cell growth inhibition measured after 5 days by MTT assay; type: functional, cell-based; settings: WM35, 120 h
K562 = test: Antiproliferative activity against human K562 cells assessed as cell growth inhibition measured after 5 days by MTT assay; type: functional, cell-based; settings: K562, 120 h
Tubulin = Tubulin (Sus scrofa, UniProt P02554+P02550); test: Inhibition of porcine brain tubulin polymerization preincubated for 30 mins followed by GTP addition by absorbance based analysis; type: tissue-based
OVCAR-3 = test: Antiproliferative activity against human OVCAR-3 cells assessed as cell growth inhibition measured after 5 days by MTT assay; type: functional, cell-based; settings: OVCAR-3, 120 h
[13] = molecular target: 3-oxo-5-alpha-steroid 4-dehydrogenase 1 (Rattus norvegicus, UniProt P24008); test: Inhibition of rat liver microsomal SRD5A1 incubated for 60 mins by thin layer chromatography; type: microsomes, Microsome
Huh-7 = test: Antiproliferative activity against human Huh-7 cells assessed as cell growth inhibition by MTT assay; type: functional, cell-based
HepG2 [14] = test: Antiproliferative activity against human HepG2 cells assessed as cell growth inhibition by MTT assay; type: functional, cell-based
SGC-7901 = test: Antiproliferative activity against human SGC-7901 cells assessed as cell growth inhibition by MTT assay; type: functional, cell-based
EC9706 = test: Antiproliferative activity against human EC9706 cells assessed as cell growth inhibition measured after 72 hrs by MTT assay; type: functional, cell-based; settings: EC9706, 72 h
ECa-109 cell line = test: Antiproliferative activity against human EC109 cells assessed as cell growth inhibition measured after 72 hrs by MTT assay; type: functional, cell-based; settings: ECa-109, 72 h
MGC-803 = test: Antiproliferative activity against human MGC-803 cells assessed as cell growth inhibition measured after 72 hrs by MTT assay; type: functional, cell-based; settings: MGC-803, 72 h
[15] = Antiproliferative activity against African green monkey Vero cells assessed as cell growth inhibition; type: toxicity, cell-based; settings: African green monkey (Chlorocebus sabaeus)
CCRF-CEM [16] = test: Antiproliferative activity against human CEM cells assessed as cell growth inhibition; type: functional, cell-based
HT-29 = test: Antiproliferative activity against human HT-29 cells assessed as cell growth inhibition; type: functional, cell-based
[17] = Antiangiogenesis activity in Bovine BAEC cells assessed as increase in tube formation incubated for 18 hrs by microscopic analysis; type: functional, cell-based; settings: Bos taurus
[18] = Antiproliferative activity against human HMEC-1 cells assessed as cell growth inhibition; type: toxicity, cell-based
HeLa [19] = test: Antiproliferative activity against human HeLa cells assessed as cell growth inhibition; type: functional, cell-based
MDA-MB-231 = test: Antiproliferative activity against human MDA-MB-231 cells assessed as cell growth inhibition; type: functional, cell-based
HepG2 [20] = test: Antiproliferative activity against human HepG2 cells assessed as cell growth inhibition; type: functional, cell-based
SK-OV-3 = test: Antiproliferative activity against human SK-OV-3 cells assessed as cell growth inhibition; type: functional, cell-based
MCF7 [21] = test: Antiproliferative activity against human MCF7 cells assessed as cell growth inhibition; type: functional, cell-based
HeLa [22] = test: Antiproliferative activity against human HeLa cells assessed as cell growth inhibition measured after 4 days by coulter counter assay; type: functional, cell-based; settings: 96 h
CCRF-CEM [23] = test: Antiproliferative activity against human CEM cells assessed as cell growth inhibition measured after 4 days by coulter counter assay; type: functional, cell-based; settings: 96 h
[24] = Antiproliferative activity against human HMEC-1 cells assessed as cell growth inhibition measured after 4 days by coulter counter assay; type: toxicity, cell-based

Sequence of 3-oxo-5-alpha-steroid 4-dehydrogenase 1 (Homo sapiens, UniProt P18405) (P18405 whole entry): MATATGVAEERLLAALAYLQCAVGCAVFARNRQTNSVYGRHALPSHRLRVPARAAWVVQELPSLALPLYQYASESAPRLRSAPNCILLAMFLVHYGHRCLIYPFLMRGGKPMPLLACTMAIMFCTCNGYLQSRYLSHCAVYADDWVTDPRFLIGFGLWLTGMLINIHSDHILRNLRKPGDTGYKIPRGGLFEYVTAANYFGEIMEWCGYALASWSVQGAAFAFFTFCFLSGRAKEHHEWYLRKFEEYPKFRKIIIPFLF
Sequence of 3-oxo-5-alpha-steroid 4-dehydrogenase 2 (Homo sapiens, UniProt P31213) (P31213 whole entry): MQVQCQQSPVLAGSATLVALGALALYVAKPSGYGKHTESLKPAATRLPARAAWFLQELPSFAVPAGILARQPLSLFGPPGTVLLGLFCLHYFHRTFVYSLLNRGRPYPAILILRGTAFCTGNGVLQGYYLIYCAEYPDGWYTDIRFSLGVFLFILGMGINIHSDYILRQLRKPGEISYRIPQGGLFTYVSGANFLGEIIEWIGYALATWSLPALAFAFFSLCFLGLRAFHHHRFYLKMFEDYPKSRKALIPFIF
Sequence of 3-oxo-5-alpha-steroid 4-dehydrogenase 2 (Rattus norvegicus, UniProt P31214) (P31214 whole entry): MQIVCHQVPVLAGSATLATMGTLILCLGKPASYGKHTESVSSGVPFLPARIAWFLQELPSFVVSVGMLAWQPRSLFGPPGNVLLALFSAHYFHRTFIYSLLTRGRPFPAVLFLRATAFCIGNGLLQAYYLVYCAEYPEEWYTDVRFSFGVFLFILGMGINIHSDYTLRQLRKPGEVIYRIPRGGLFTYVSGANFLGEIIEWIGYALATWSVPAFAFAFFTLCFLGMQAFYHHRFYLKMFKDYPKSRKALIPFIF
Sequence of 3-oxo-5-alpha-steroid 4-dehydrogenase 1 (Rattus norvegicus, UniProt P24008) (P24008 whole entry): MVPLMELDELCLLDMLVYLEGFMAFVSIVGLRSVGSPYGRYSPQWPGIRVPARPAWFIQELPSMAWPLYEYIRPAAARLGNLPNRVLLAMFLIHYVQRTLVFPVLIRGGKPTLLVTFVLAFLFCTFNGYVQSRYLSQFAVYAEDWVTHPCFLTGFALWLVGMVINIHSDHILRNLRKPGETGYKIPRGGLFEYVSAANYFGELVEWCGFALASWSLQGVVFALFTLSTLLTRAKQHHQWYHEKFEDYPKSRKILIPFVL

- pIC50 [1]: 6.90
Structure (SMILES): C[C@]12CC[C@H](O)CC1=CC[C@@H]1[C@@H]2CC[C@]2(C)C(n3cnc4ccccc43)=C(C=O)C[C@@H]12

- pIC50 (HepG2 [2]): 4.17
Structure (SMILES): COc1ccncc1C1=CC[C@H]2[C@@H]3CC=C4C[C@@H](OC(=O)[C@H](O)[C@@H](NC(=O)c5ccccc5)c5ccccc5)CC[C@]4(C)[C@H]3CC[C@]12C

- pIC50 (LNCaP): 5.42
- pIC50 (PC-3): 5.16
Structure (SMILES): C[C@]12CC[C@H](O)CC1=CC[C@@H]1[C@@H]2CC[C@]2(C)C(c3nc4ccccc4[nH]3)=CC[C@@H]12

Structure (SMILES): CC(=O)N1N=C(C2=CC[C@H]3[C@@H]4CC=C5C[C@@H](O)CC[C@]5(C)[C@H]4CC[C@]23C)C[C@H]1c1ccc(F)cc1
- pIC50 [3]: 7.56
- pIC50 [4]: 7.86

- pIC50 [5]: 6.38
Structure (SMILES): COC(=O)c1cc([C@H]2CC[C@H]3[C@@H]4CCC5=CC(=O)CC[C@]5(C)[C@H]4CC[C@]23C)n(-c2ccc(OC)cc2)n1

Structure (SMILES): CCCCCCn1c[n+](CCCCCC)c2c1[C@@]1(C)CC[C@H]3[C@@H](CC=C4C[C@@H](O)CC[C@@]43C)[C@@H]1C2.[I-]
- MIC (Staphylococcus aureus [6]): 1 µg/mL
- MIC (Brevibacterium): 0.5 µg/mL
- MIC (Escherichia coli): 4 µg/mL
- MIC (Staphylococcus aureus [7]): 0.5 µg/mL
- MIC (Staphylococcus aureus [8]): 1 µg/mL
- MIC (Corynebacterium sp.): 8 µg/mL
- MIC (Staphylococcus aureus [9]): 1 µg/mL
- MIC (Enterococcus faecalis): 4 µg/mL
- MIC (Staphylococcus aureus [10]): 0.5 µg/mL
- MIC (Candida albicans): 1 µg/mL
- MIC (Bacillus cereus): 1 µg/mL

- pIC50 (MDA-MB-361): 6.03
- pIC50 (T47D): 5.84
- pIC50 (MCF7 [11]): 5.96
Structure (SMILES): C[C@]12CC[C@H](O)CC1=CC[C@@H]1[C@@H]2CC[C@]2(C)C3=NN(c4ccc(C#N)cc4)C[C@@H]3C[C@@H]12

Structure (SMILES): CCCCCCCn1c[n+](CCCCCCC)c2c1[C@@]1(C)CC[C@H]3[C@@H](CC=C4C[C@@H](O)CC[C@@]43C)[C@@H]1C2.[I-]
- MIC (Staphylococcus aureus [6]): 0.5 µg/mL
- MIC (Brevibacterium): 0.25 µg/mL
- MIC (Escherichia coli): 4 µg/mL
- MIC (Staphylococcus aureus [7]): 0.25 µg/mL
- MIC (Staphylococcus aureus [8]): 1 µg/mL
- MIC (Corynebacterium sp.): 1 µg/mL
- MIC (Staphylococcus aureus [9]): 1 µg/mL
- MIC (Enterococcus faecalis): 1 µg/mL
- MIC (Staphylococcus aureus [10]): 1 µg/mL
- MIC (Candida albicans): 1 µg/mL
- MIC (Bacillus cereus): 0.5 µg/mL

Structure (SMILES): C[C@]12CC[C@H](O)CC1=CC[C@@H]1[C@@H]2CC[C@]2(C)C(c3ccn(-c4ccc(Cl)cc4)n3)=CC[C@@H]12
- pIC50 [3]: 7.45
- pIC50 [4]: 7.85

- pIC50 (K562): 6.00
- IC50 (Tubulin): 8100 nM
- pIC50 (OVCAR-3): 5.85
Structure (SMILES): COc1cc2c(cc1O)CC[C@@H]1[C@@H]2CC[C@]2(C)[C@@H](c3cn(-c4ccc(C(F)(F)F)cc4)nn3)CC[C@@H]12
- pIC50 [12]: 5.72

Structure (SMILES): C[C@]12CC[C@H](OC(=O)C3CC3)CC1=CC[C@@H]1[C@@H]2CC[C@]2(C)C(n3cnc4ccccc43)=C(C=O)C[C@@H]12
- pIC50 [1]: 8.40
- pIC50 [13]: 6.49

- pIC50 (Huh-7): 5.25
- pIC50 (HepG2 [14]): 5.27
- pIC50 (SGC-7901): 4.97
Structure (SMILES): C[C@]12CC[C@H](O)CC1=CC[C@@H]1[C@@H]2CC[C@]2(C)c3nc(N)nc(-c4ccccc4Cl)c3C[C@@H]12

- pIC50 (MGC-803): 4.99
Structure (SMILES): C[C@]12CC[C@H](O)CC1=CC[C@@H]1[C@@H]2CC[C@]2(C)c3nc(NCc4ccc(Cl)cc4)sc3C[C@@H]12
- pIC50 (EC9706): 4.41
- pIC50 (ECa-109 cell line): 6.71

- pIC50 (CCRF-CEM [16]): 6.59
- IC50 (Tubulin): 2300 nM
- pIC50 (HT-29): 6.37
- pIC50 [17]: 7.00
- pIC50 (HeLa [19]): 5.80
Structure (SMILES): COc1cc2c(cc1OS(N)(=O)=O)CC[C@@H]1[C@@H]2CC[C@]2(C)C(c3ccnc(Cl)c3)=CC[C@@H]12
- pIC50 [15]: 5.89
- pIC50 [18]: 5.64

- pIC50 (K562): 6.15
- IC50 (Tubulin): 5900 nM
- pIC50 (OVCAR-3): 6.05
Structure (SMILES): COc1cc2c(cc1O)CC[C@@H]1[C@@H]2CC[C@]2(C)[C@@H](c3cn(-c4ccc(OC(F)(F)F)cc4)nn3)CC[C@@H]12
- pIC50 [12]: 5.54

- pIC50 (MDA-MB-231): 6.96
- pIC50 (CCRF-CEM [16]): 7.41
- IC50 (Tubulin): 2100 nM
- pIC50 (HT-29): 6.96
- pIC50 [17]: 6.70
- pIC50 (HeLa [19]): 6.43
Structure (SMILES): COc1cc2c(cc1OS(N)(=O)=O)CC[C@@H]1[C@@H]2CC[C@]2(C)C(c3cncc(Cl)c3)=CC[C@@H]12
- pIC50 [15]: 7.52
- pIC50 [18]: 6.40

- pIC50 (HepG2 [20]): 4.91
- pIC50 (SK-OV-3): 5.29
- pIC50 (MCF7 [21]): 5.06
- pIC50 (HeLa [19]): 5.09
Structure (SMILES): C[C@]12CC[C@H]3[C@@H](CC=C4C[C@@H](O)CC[C@@]43C)[C@@H]1CC[C@@H]2c1cc(-c2ccc(O)cc2)c(C#N)c(N)n1

Structure (SMILES): C[C@]12CC[C@H](O)CC1=CC[C@@H]1[C@@H]2CC[C@]2(C)C(c3ccc4[nH]ccc4c3)=CC[C@@H]12
- pIC50 (HeLa [22]): 5.54
- pIC50 (CCRF-CEM [23]): 5.82
- IC50 at 4 days [24]: 590 nM
